According to US6479251B1, “Colorimetric test for agents that induce mitochondrial dysfunction” (priority 1999, dated 2002):

Experiments:
Assay type in all cases: cell-based
[1] = tested on: S. cerevisiae strain YPH499; assay: Colorimetric test: red to white colony colour change on YPD agar after treatment
Protocol: (§1) FIGS. 1A and 1B show visual color identification of mitochondrial dysfunction. The wild type S. cerevisiae YPH499 was gown in YPD (1% yeast extract, 2% bactopeptone and 2% dextrose) to log phase at 30° C. The log phase culture was centrifuged, resuspended in water containing adriamycin (150 μg/ml) for one hour. Appropriate dilutions of the culture were plated on YPD agar and incubated at 30° C. for 3-4 days. […] FIG. 1B: white colonies from treated cells in FIG. 1A wee replicated on to agar medium containing 2% dextrose (left) and 2% glycerol (right).
The wild type S. cerevisiae YPH499 was grown in YPD to log phase at 30° C. The culture was centrifuged, resuspended in water containing various concentrations of adriamycin as indicated for one hour. Appropriate dilutions of the culture were plated on YPD agar and incubated at 30° C. Colonies were counted after 3-4 days. Values presented are the average of four determinants.
FIGS. 5A, 5B, and 5C show the percentage of white colonies produced after treatment with physical or chemical agents. Exponentially growing cells were treated with various doses of UV (FIG. 5A) or various lengths of time (MMS (FIG. 5B) and H2O2 (FIG. 5C)). For UV treatment appropriate dilutions of culture were plated on YPD agar and exposed to UV using STRATALINKER (Stratagene). For MMS and H2O2 treatments, cells were exposed in liquid YPD medium.
(§2) The yeast S. cerevisiae strain YPH499 (a ura3-52, lys2-801, ade2-101, trpl-63, his3-200, leul-1) was grown in YPD to log phase. Cell were then harvested and suspended in water containing various concentration of adriamycin for one hour. In order to test whether white colonies were defective in mitochondrial function, we transferred the colonies to an agar media containing glycerol (nonfermentable carbon source). Utilization of glycerol by an eukaryotic cell requires intact mitochondrial function (2). […] The number of surviving colonies that were white reached about 30% at 150 μglml concentration.

[2] = tested on: S. cerevisiae strain YPH499; assay: Growth of white colonies on glycerol (nonfermentable carbon source) agar
Protocol: as §1, §2

[3] = tested on: mitDNA of S. cerevisiae white colonies
Protocol: FIGS. 3A-3D show mitochondrial genome changes induced by adriamycin. Various white S. cerevisiae colonies produced after treatment with adriamycin were grown to log phase and stained with DAPI, which stains DNA. FIG. 3A: wild type; FIG. 3B: a Rho^0 strain (devoid of mitochondrial genome); FIG. 3C: a representative white cell lacking mitochondrial genome; and FIG. 3D: a representative cell containing mutant mitochondrial DNA.
White S. cerevisiae colonies produced after treatment with physical or chemical agents were grown to log phase and stained with DAPI. FIG. 6A: Wild type; FIG. 6B: A Rho^0 strain; FIG. 6C: adriamycin; FIG. 6D: hydrogen peroxide; FIG. 6E: UV; FIG. 6F: Methylmethane sulfonate. For FIGS. 6C-F, the cells on the right contains mutant mitDNA and the cell on the left lacks a mitochondrial genome.
DNA was stained with a fluorescent dye, 4,6-diamidino-2-phenylindole (DAPI)(2). […] In this study, a known yeast strain lacking mitDNA (Rho^0) served as a negative control (FIG. 3B, only nuclear DNA is stained).

[4] = tested on: S. cerevisiae diploid cells (white colonies x Rho0); assay: Mating of haploid white colonies with Rho0 strain YPH 500, growth of diploids on glycerol medium; settings: a total of 143 diploid cells from white colonies after adriamycin treatment mated with Rho0 (FIG. 4)
Protocol: FIGS. 4A and 4B show growth comparison of haploid and diploid S. cerevisiae cells. FIG. 4A: Various white colonies produced after treatment with adriamycin were streaked on YP glycerol plates. FIG. 4B: The same white colonies were mated with an opposite mating type strain of yeast lacking mitochondrial DNA on YPD plates. The diploid yeast strains were tested for growth on YP glycerol medium.
The genetic approach employed involved mating haploid white colonies generated after adriamycin treatment (shown in FIG. 2, “a” mating type) with a haploid Rho^0 strain (of opposite mating type “α” YPH 500 (ura3-52, lys2-801, ade2-101, trpl-63, his3-200, leu2-1) lacking mitDNA (3). The diploid cells (a total of 143) were tested for growth on glycerol medium. If the white cells contained a mutation in a nuclear gene affecting the mitochondrial function, it can be expected that diploid cells will grow on glycerol because a nuclear defect can be complemented with Rho^0 (because it contains intact nuclear DNA but lacks mitDNA). […] Together, these studies indicate that adriamycin preferentially damages mitDNA. This preferential damage by adriamycin can result either in complete loss of mitDNA (due to severe damage) and/or mutations in mitDNA (due to minor damage FIG. 3).

Row | SMILES | increase in white colonies [1] | growth of white colonies on glycerol [2] | microscopic and genetic tests of white colonies (mitDNA status) ([3]; white colonies obtained after treatment with physical or chemical agents (FIG. 6)) | growth of diploid cells on glycerol medium [4] | growth of randomly chosen white colonies on glycerol plates ([2]; white colonies obtained after adriamycin treatment (FIG. 1B)) | number of surviving colonies that were white ([1]; adriamycin 150 μglml in water for one hour, plated on YPD agar, 30° C., 3-4 days) | white colonies versus dose ([1]; various concentrations of adriamycin in water for one hour (FIG. 2)) | DAPI DNA staining of white colonies (mitDNA present or lost) ([3]; white colonies obtained after adriamycin treatment (FIG. 3))
1 | OO [H2O2, hydrogen peroxide] | did not result in increased white colonies |  |  |  |  |  |  | 
2 | COS(C)(=O)=O [MMS, methyl methane sulphonate] | did | do not grow on glycerol | either contained mutant mitDNA or lacked mitDNA at all |  |  |  |  | 
3 | COc1cccc2c1C(=O)c1c(O)c3c(c(O)c1C2=O)C[C@@](O)(C(=O)CO)C[C@@H]3O[C@H]1C[C@H](N)[C@H](O)[C@H](C)O1 [adriamycin] |  |  |  | none grew on glycerol medium | none were able to grow | about 30% | increase number of white colonies with increasing dose | two types of DNA staining
